Source: ChEMBL document CHEMBL3734739, “Synthesis and biological evaluation of novel derivatives of gambogenic acid as anticancer agents” (Medchemcomm, 2015)
Calls of active or inactive are those of the source. No cut-off for these calls is given here.

Experiments:
[1] = Cytotoxicity against human PANC1 cells by MTT assay; type: functional, cell-based; settings: PANC-1
HepG2 [2] = assay: Cytotoxicity against human HepG2 cells by MTT assay; type: functional, cell-based
A549 = assay: Cytotoxicity against human A549 cells by MTT assay; type: functional, cell-based
U-251 = assay: Cytotoxicity against human U251 cells by MTT assay; type: functional, cell-based
HepG2 [3] = assay: Induction of apoptosis in human HepG2 cells assessed as ratio of Bcl2/Bax at 1.25 uM after 72 hrs by western blot analysis; type: functional
HepG2 [4] = assay: Cell cycle arrest in human HepG2 cells at 0.3125 to 1.25 uM by propidium iodide staining based flow cytometric analysis; type: functional; settings: TDE = time-dependent effect
HepG2 [5] = assay: Induction of apoptosis in human HepG2 cells assessed as ratio of Bcl2/Bax at 0.625 uM after 72 hrs by western blot analysis; type: functional
HepG2 [6] = assay: Induction of apoptosis in human HepG2 cells assessed as ratio of Bcl2/Bax at 0.3125 uM after 72 hrs by western blot analysis; type: functional
HepG2 [7] = assay: Cell cycle arrest in human HepG2 cells assessed as accumulation at S phase at 0.3125 to 1.25 uM by propidium iodide staining based flow cytometric analysis; type: functional
HepG2 [8] = assay: Cell cycle arrest in human HepG2 cells after 24 hrs by propidium iodide staining based flow cytometric analysis; type: functional
HepG2 [9] = assay: Induction of apoptosis in human HepG2 cells at […] to 1.25 uM after 48 hrs by annexin V/propidium iodide staining-based flow cytometric analysis relative to control; type: functional, cell-based

Row | SMILES | IC50 [1] | IC50 (HepG2 [2]) | IC50 (A549) | IC50 (U-251) | Ratio (HepG2 [3]) | Activity (HepG2 [4]) | Ratio (HepG2 [5]) | Ratio (HepG2 [6]) | Activity (HepG2 [7]) | Activity (HepG2 [2]) | Activity (HepG2 [8]) | Activity (HepG2 [9])
1 | CC(C)=CCC/C(C)=C/Cc1c(O)c(CC=C(C)C)c2c(c1O)C(=O)C1=C[C@@H]3C[C@@H]4C(C)(C)O[C@@](C/C=C(/C)C(=O)OCCCCN5CCN(C)CC5)(C3=O)[C@@]14O2 | 7570 nM | 10800 nM | 3230 nM | 17500 nM |  |  |  |  |  |  |  | 
2 | CC(C)=CCC/C(C)=C/Cc1c(O)c(CC=C(C)C)c2c(c1O)C(=O)C1=C[C@@H]3C[C@H]4C(C)(C)O[C@@](C/C=C(/C)C(=O)OCCN5CCN(CCO)CC5)(C3=O)[C@@]14O2 | 2510 nM | 3870 nM | 2440 nM | 3820 nM |  |  |  |  |  |  |  | 
3 | CC(C)=CCC/C(C)=C/Cc1c(O)c(CC=C(C)C)c2c(c1O)C(=O)C1=C[C@H]3C[C@H]4C(C)(C)O[C@](C/C=C(/C)C(=O)OCCN5CCOCC5)(C3=O)[C@]14O2 | 1890 nM | 6360 nM | 4270 nM | 4930 nM |  |  |  |  |  |  |  | 
4 | CC(C)=CCC/C(C)=C/Cc1c(O)c(CC=C(C)C)c2c(c1O)C(=O)C1=C[C@@H]3C[C@@H]4C(C)(C)O[C@@](C/C=C(/C)C(=O)OCCCCN5CCCCC5)(C3=O)[C@@]14O2 | 4430 nM | 3920 nM | 3430 nM | 2780 nM |  |  |  |  |  |  |  | 
5 | CC(C)=CCC/C(C)=C/Cc1c(O)c(CC=C(C)C)c2c(c1O)C(=O)C1=C[C@@H]3C[C@H]4C(C)(C)O[C@@](C/C=C(/C)C(=O)O)(C3=O)[C@@]14O2 [GAMBOGENIC ACID] | 4160 nM | 3230 nM | 3490 nM | 3220 nM |  |  |  |  |  |  |  | 
6 | CCN(CC)CCCCOC(=O)/C(C)=C\C[C@]12OC(C)(C)[C@@H]3C[C@H](C=C4C(=O)c5c(O)c(C/C=C(\C)CCC=C(C)C)c(O)c(CC=C(C)C)c5O[C@@]431)C2=O | 1840 nM | 2410 nM | 3180 nM | 4620 nM |  |  |  |  |  |  |  | 
7 | CCN(CC)CCCOC(=O)/C(C)=C\C[C@@]12OC(C)(C)[C@H]3C[C@@H](C=C4C(=O)c5c(O)c(C/C=C(\C)CCC=C(C)C)c(O)c(CC=C(C)C)c5O[C@]431)C2=O | 2850 nM | 2640 nM | 2940 nM | 2050 nM |  |  |  |  |  |  |  | 
8 | CC(C)=CCC/C(C)=C/Cc1c(O)c(CC=C(C)C)c2c(c1O)C(=O)C1=C[C@H]3C[C@H]4C(C)(C)O[C@](C/C=C(/C)C(=O)OCCN5CCCCC5)(C3=O)[C@]14O2 | 1890 nM | 970 nM | 1550 nM | 4930 nM |  |  |  |  |  |  |  | 
9 | CCN(CC)CCOC(=O)/C(C)=C\C[C@@]12OC(C)(C)[C@H]3C[C@@H](C=C4C(=O)c5c(O)c(C/C=C(\C)CCC=C(C)C)c(O)c(CC=C(C)C)c5O[C@]431)C2=O | 2860 nM | 1950 nM | 1410 nM | 2650 nM |  |  |  |  |  |  |  | 
10 | CC(C)=CCC/C(C)=C/Cc1c(O)c(CC=C(C)C)c2c(c1O)C(=O)C1=C[C@@H]3C[C@@H]4C(C)(C)O[C@@](C/C=C(/C)C(=O)OCCCN5CCN(C)CC5)(C3=O)[C@@]14O2 | 450 nM | 980 nM | 1650 nM | 1130 nM | 0.251 | tde | 0.478 | 0.598 | Active | Dose-dependent effect | Dose-dependent effect | Active
11 | CC(C)=CCC/C(C)=C/Cc1c(O)c(CC=C(C)C)c2c(c1O)C(=O)C1=C[C@@H]3C[C@@H]4C(C)(C)O[C@@](C/C=C(/C)C(=O)OCCCCN5CCOCC5)(C3=O)[C@@]14O2 | 18600 nM | 14400 nM | 3170 nM | 21600 nM |  |  |  |  |  |  |  | 
12 | CC(C)=CCC/C(C)=C/Cc1c(O)c(CC=C(C)C)c2c(c1O)C(=O)C1=C[C@H]3C[C@H]4C(C)(C)O[C@](C/C=C(/C)C(=O)OCCCN5CCOCC5)(C3=O)[C@]14O2 | 2360 nM | 5790 nM | 1300 nM | 3310 nM |  |  |  |  |  |  |  | 
13 | CC(C)=CCC/C(C)=C/Cc1c(O)c(CC=C(C)C)c2c(c1O)C(=O)C1=C[C@H]3C[C@H]4C(C)(C)O[C@](C/C=C(/C)C(=O)OCCCN5CCCCC5)(C3=O)[C@]14O2 | 4660 nM | 3590 nM | 2540 nM | 8870 nM |  |  |  |  |  |  |  | 
14 | CC(C)=CCC/C(C)=C/Cc1c(O)c(CC=C(C)C)c2c(c1O)C(=O)C1=C[C@H]3C[C@H]4C(C)(C)O[C@](C/C=C(/C)C(=O)OCCCN5CCN(CCO)CC5)(C3=O)[C@]14O2 | 2520 nM | 2750 nM | 1510 nM | 1180 nM |  |  |  |  |  |  |  | 
15 | CC(C)=CCC/C(C)=C/Cc1c(O)c(CC=C(C)C)c2c(c1O)C(=O)C1=C[C@@H]3C[C@@H]4C(C)(C)O[C@@](C/C=C(/C)C(=O)OCCN5CCN(C)CC5)(C3=O)[C@@]14O2 | 2610 nM | 2830 nM | 1610 nM | 3450 nM |  |  |  |  |  |  |  | 
16 | CC(C)=CCC/C(C)=C/Cc1c(O)c(CC=C(C)C)c2c(c1O)C(=O)C1=C[C@@H]3C[C@H]4C(C)(C)O[C@@](C/C=C(/C)C(=O)OCCCCN5CCN(CCO)CC5)(C3=O)[C@@]14O2 | 790 nM | 570 nM | 9530 nM | 1460 nM |  |  |  |  |  |  |  | 
